Counter-ions that a name gives are not always drawn.

Consider `CCN1CCN(c2nc(-c3ccc(CC(C)=O)cc3)cc3ccccc23)CC1` (as salt: hydrochloride) [Example 375, 1-(4-ethylpiperazin-1-yl)-3-[4-(2-oxopropyl)phenyl]isoquinoline dihydrochloride], for which the melting point was in the range of 125 to 126 °C.
With `CCCN1CCN(c2nc(-c3ccc(OCCO)cc3)cc3ccccc23)CC1` (as salt: hydrochloride) the figure was 220 to 225 °C.
The value for `CCN1CCN(c2nc(-c3cccc(OCCO)c3)cc3ccsc23)CC1` (as salt: hydrochloride) [Example 258, 7-(1-ethylpiperazin-4-yl)-5-[3-(2-hydroxyethoxy)phenyl]thieno[2,3-c]pyridine Dihydrochloride] was 132 to 135 °C.
The value for `COc1ccc(-c2cc3ccccc3c(N3CCN(CCO)CC3)n2)cc1` (as salt: hydrochloride) [Example 242, 1-[4-(2-hydroxyethyl)piperazin-1-yl]-3-(4-methoxyphenyl)isoquinoline Dihydrochloride] was 163 to 165 °C; that for `CCC(C)NS(=O)(=O)c1ccc(-c2cc3ccccc3c(N3CCN(CC)CC3)n2)cc1` (stereo not drawn) (as salt: hydrochloride) [Example 360, 1-(4-ethylpiperazin-1-yl)-3-{4-[N-(1-methylpropyl)sulfamoyl]phenyl}isoquinoline dihydrochloride] was 155 to 156 °C; that for `CN1CCN(c2nc(-c3ccc(OCC(C)(C)O)cc3)cc3sccc23)CC1` (as salt: hydrochloride) [Example 288, 6-[4-(2-methyl-2-hydroxypropoxy)phenyl]-4-(4-methylpiperazin-1-yl)thieno[3,2-c]pyridine hydrochloride] was 135 to 138 °C.
`CCNC(=O)c1ccc(-c2cc3ccccc3c(N3CCN(CC)CC3)n2)cc1` (as salt: hydrochloride) [Example 364, 1-(4-ethylpiperazin-1-yl)-3-[4-(N-ethylcarbamoyl)phenyl]isoquinoline dihydrochloride] showed a melting point of 160 to 160.5 °C.
With `CCN1CCN(c2nc(/C=C/c3cncc(N4CCOCC4)n3)cc3ccccc23)CC1` (as salt: oxalate) [Example 216, 3-{(E)-2-[2-(4-morpholinyl)pyrazin-6-yl]ethenyl}-1-(4-ethylpiperazin-1-yl)isoquinoline oxalate] the figure was 173 to 175 °C; with `CCN1CCN(c2nc(-c3ccc(OCCOC)c(F)c3)cc3ccccc23)CC1` (as salt: hydrochloride) [Example 367, 1-(4-ethylpiperazin-1-yl)-3-(3-fluoro-4-methoxyethoxyphenyl)isoquinoline dihydrochloride], 112.5 to 114 °C.
On to `CCN1CCN(c2nc(-c3ccc(N4CCC(OC)CC4)nc3)cc3ccccc23)CC1` (as salt: hydrochloride) [Example 153, 1-(4-ethylpiperazin-1-yl)-3-[2-(4-methoxypiperidin-1-yl)pyridin-5-yl]isoquinoline trihydrochloride], for which the melting point turned out to be 170 °C.
The value for `CCN1CCN(c2nc(-c3ccc(OCCO)c(F)c3)cc3ccccc23)CC1` (as salt: hydrochloride) [Example 369, 1-(4-ethylpiperazin-1-yl)-3-[3-fluoro-4-(2-hydroxyethoxy)phenyl]isoquinoline dihydrochloride] was 119 to 120 °C; that for `CCCC(=O)Nc1ccc(-c2cc3ccccc3c(N3CCN(CC)CC3)n2)cn1` (as salt: hydrochloride) [Example 128, 3-(2-propylcarbonylaminopyridin-5-yl)-1-(4-ethylpiperazin-1-yl)isoquinoline hydrochloride] was 168 to 171 °C.
With `CCN1CCN(c2nc(/C=C/c3ccccc3)cc3ccccc23)CC1` (as salt: hydrochloride) [Example 189, 1-(1-Ethylpiperazin-4-Yl)-3-(Trans-2-Phenylethenyl)Isoquinoline Dihydrochloride], the melting point is 222 to 225 °C.
With `CCN1CCN(c2nc(-c3ccc(C#CC(C)(C)O)cc3)cc3sccc23)CC1` (as salt: oxalate) [Example 466, 4-(4-ethylpiperazin-1-yl)-6-[4-(3-hydroxy-3-methyl-1-butynyl)phenyl]thieno[3,2-c]pyridine oxalate] the figure was 124.5 to 125.5 °C; with `CCN1CCN(c2nc(C#Cc3cncc(CCCOC)c3)cc3ccccc23)CC1` (as salt: hydrochloride) [Example 186, 1-(1-Ethylpiperazin-4-Yl)-3-[3-(3-Methoxypropyl)-5-Pyridyl]Ethynylisoquinoline], 135 to 140 °C; with `CCN1CCN(c2nc(/C=C(\C)c3ccc(N4CCOCC4)cc3)cc3ccccc23)CC1` (as salt: oxalate) [Example 206, 3-{(E)-2-Methyl-2-[4-(4-Morpholinyl)Phenyl]Ethenyl}-1-(4-Ethylpiperazin-1-Yl)Isoquinoline Oxalate], 266 to 267 °C.
Compound `CCN1CCN(c2nc(-c3ccc(N4CCOCC4)nc3)cc3ccccc23)CC1` (as salt: hydrochloride) [Example 147, 1-(4-ethylpiperazin-1-yl)-3-[2-(morpholin-4-yl)pyridin-5-yl]isoquinoline trihydrochloride] displayed a melting point of 186 °C.
With `CCN1CCN(c2nc(-c3ccc([C@@H]4C[C@@H](O)CCO4)cc3)cc3ccsc23)CC1` (relative stereo) (as salt: hydrochloride) [Example 455, 7-(4-ethylpiperazin-1-yl)-5-[4-(trans-4-hydroxytetrahydropyran-2-yl)phenyl]thieno[2,3-c]pyridine dihydrochloride] the figure was 146 to 148 °C.
The value for `COc1ccc(-c2cc3ccccc3c(N(C)CCN(C)C)n2)cc1` (as salt: hydrochloride) [Example 319, 1-{N-[2-(2-dimethylamino)ethyl]-N-methylamino}-3-(4-methoxyphenyl)isoquinoline dihydrochloride] was 160 to 162 °C; that for `CCN1CCN(c2nc(-c3ccc(S(=O)(=O)CC)cc3)cc3ccccc23)CC1` (as salt: hydrochloride) [Example 366, 1-(4-ethylpiperazin-1-yl)-3-[4-(ethylsulfonyl)phenyl]isoquinoline dihydrochloride] was 150 to 151.5 °C; that for `CCN1CCN(c2nc(-c3ccc(OCCO)c(OCCO)c3)cc3ccccc23)CC1` (as salt: hydrochloride) was 130 to 132 °C.
As to `CCCCC(=O)c1ccc(-c2cc3ccsc3c(N3CCN(CC)CC3)n2)cc1` (as salt: hydrochloride) [Example 271, 7-(1-ethylpiperazin-4-yl)-5-(4-pentanoylphenyl)phenyl)thieno[2,3-c]pyridine dihydrochloride], the melting point was 109 to 114 °C.
With `CCN1CCN(c2nc(-c3ccc(OCC(C)(C)O)cc3)cc3ccsc23)CC1` (as salt: hydrochloride) [Example 260, 7-(1-Ethylpiperazin-4-yl)-5-[4-(2-hydroxy-2-methylpropoxy)phenyl]thieno[2,3-c]pyridine dihydrochloride] the figure was 137 to 139 °C; with `CCN1CCN(c2nc(C(O)c3ccc(OC)cc3)cc3ccccc23)CC1` (stereo not drawn) (as salt: oxalate) [Example 104, 3-[α-Hydroxy-(4-methoxybenzyl)]-1-(4-ethylpiperazin-1-yl)isoquinoline Oxalate], 95 to 97 °C.

By melting point is commonly meant the temperature of the solid-liquid transition.

Source of the values: patent US6875761B2 (Eisai Co., Ltd., priority 1997, dated 2005).
